Laboratory results published in patent US10287301B2 (Achillion Pharmaceuticals, Inc., priority 2015, dated 2019).

biological target: Human Factor D (Homo sapiens (Human), UniProt P00746); assay: Human Factor D Assay; assay type: biochemical; conditions: not given
In short: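 Serum-purified human Factor D (80 nM final) was preincubated with test compound at various concentrations for 5 min at room temperature in 50 mM Tris, 1M NaCl, pH 7.5. Z-L-Lys-SBzl and DTNB were then added at 100 μM each. IC50 came from nonlinear regression of reaction rates versus compound concentration.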

Human Factor D, sequence (P00746 26-253): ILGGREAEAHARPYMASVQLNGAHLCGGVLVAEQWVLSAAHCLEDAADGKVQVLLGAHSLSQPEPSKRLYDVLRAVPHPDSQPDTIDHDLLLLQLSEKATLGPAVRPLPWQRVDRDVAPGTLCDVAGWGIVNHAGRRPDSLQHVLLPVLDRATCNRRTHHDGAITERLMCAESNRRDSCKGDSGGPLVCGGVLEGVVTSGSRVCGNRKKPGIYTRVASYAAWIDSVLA

Row | Compound | IC50 [nM]
1 | CCN1Cc2ccc(NC(=O)[C@@H]3C[C@@H](F)CN3C(=O)Cn3cc(C(C)=O)c4cc(-c5ccnnc5)ccc43)cc2C1=O [Compound 49, (2S,4R)-1-(2-(3-acetyl-5-(pyridazin-4-yl)-1H-indol-1-yl)acetyl)-N-(2-ethyl-3-oxoisoindolin-5-yl)-4-fluoropyrrolidine-2-carboxamide] | 1000 to 10000

same assay, conditions: Human Factor D 80 nM, substrate Z-L-Lys-SBzl; read-out: IC50

Row | Compound | IC50 [nM]
2 | NC(=O)c1nn(CC(=O)N2C[C@H](F)C[C@H]2C(=O)Nc2ccc(O)cn2)c2ccc(-c3ccnnc3)cc12 [Compound 176, 1-(2-((2S,4R)-4-fluoro-2-(5-hydroxypyridin-2-ylcarbamoyl)pyrrolidin-1-yl)-2-oxoethyl)-5-(pyridazin-4-yl)-1H-indazole-3-carboxamide] | > 10000
3 | Cn1ccc(N2CCC(NC(=O)[C@@H]3C[C@@H](F)CN3C(=O)Cn3nc(C(N)=O)c4cc(-c5ccnnc5)ccc43)C2=O)n1 (stereo partly drawn) [Compound 155, 1-(2-((2S,4R)-4-fluoro-2-(1-(1-methyl-1H-pyrazol-3-yl)-2-oxopyrrolidin-3-ylcarbamoyl)pyrrolidin-1-yl)-2-oxoethyl)-5-(pyridazin-4-yl)-1H-indazole-3-carboxamide] | > 10000
4 | CC(=O)c1cn(CC(=O)N2C[C@H](F)C[C@H]2C(=O)Nc2ccccc2N2CCOC2=O)c2ccc(-c3ccnnc3)cc12 [Compound 64, (2S,4R)-1-(2-(3-acetyl-5-(pyridazin-4-yl)-1H-indol-1-yl)acetyl)-4-fluoro-N-(2-(2-oxooxazolidin-3-yl)phenyl) pyrrolidine-2-carboxamide] | > 10000
5 | Cn1cnnc1-c1ccccc1NC(=O)[C@@H]1C[C@@H](F)CN1C(=O)Cn1nc(C(N)=O)c2cc(-c3ccnnc3)ccc21 [Compound 98, 1-(2-((2S,4R)-4-fluoro-2-(2-(4-methyl-4H-1,2,4-triazol-3-yl)phenylcarbamoyl)pyrrolidin-1-yl)-2-oxoethyl)-5-(pyridazin-4-yl)-1H-indazole-3-carboxamide] | > 10000
6 | CC(=O)c1cn(CC(=O)N2[C@@H]3C[C@@H]3C[C@H]2C(=O)Nc2cccc(-c3ccccc3Cl)c2F)c2ccc(-c3cnc(C)nc3)cc12 [Compound 133, (1R,3S,5R)-2-(2-(3-acetyl-5-(2-methylpyrimidin-5-yl)-1H-indol-1-yl)acetyl)-N-(2′-chloro-2-fluorobiphenyl-3-yl)-2-azabicyclo[3.1.0] hexane-3-carboxamide] | < 1000

same assay, conditions: Human Factor D assay of Example 8; Table 2; read-out: IC50

Row | Compound | IC50 [nM]
7 | CC(=O)c1cn(CC(=O)N2N=CCC2C(=O)Nc2cccc(-c3ccccc3Cl)c2F)c2ccc(-c3cnc(C)nc3)cc12 (stereo not shown) [Compound 221, 1-(2-(3-acetyl-5-(2-methylpyrimidin-5-yl)-1H-indol-1-yl)acetyl)-N-(2′-chloro-2-fluorobiphenyl-3-yl)-4,5-dihydro-1H-pyrazole-5-carboxamide] | < 1000
8 | CSc1cccc(NC(=O)[C@@H]2C[C@@H](F)CN2C(=O)Cn2nc(C(C)=O)c3cc(-c4cnc(C)nc4)ccc32)n1 [Compound 246, (2S,4R)-1-(2-(3-acetyl-5-(2-methylpyrimidin-5-yl)-1H-indazol-1-yl)acetyl)-4-fluoro-N-(6-(methylthio)pyridin-2-yl)pyrrolidine-2-carboxamide] | < 1000
9 | CC(=O)c1nn(CC(=O)N2C[C@H](F)C[C@H]2C(=O)Nc2nccc(-c3sccc3Cl)n2)c2ccc(-c3cnc(C)nc3)cc12 [Compound 228, (2S,4R)-1-(2-(3-acetyl-5-(2-methylpyrimidin-5-yl)-1H-indazol-1-yl)acetyl)-N-(4-(3-chlorothiophen-2-yl)pyrimidin-2-yl)-4-fluoropyrrolidine-2-carboxamide] | < 1000
10 | CCOC(=O)c1cc2ncc(-c3ccc4c(c3)c(C(C)=O)nn4CC(=O)N3C[C@H](F)C[C@H]3C(=O)Nc3cccc(Br)n3)cn2n1 [Compound 287, ethyl 6-(3-acetyl-1-(2-((2S,4R)-2-(6-bromopyridin-2-ylcarbamoyl)-4-fluoropyrrolidin-1-yl)-2-oxoethyl)-1H-indazol-5-yl)pyrazolo[1,5-a]pyrimidine-2-carboxylate] | < 1000
11 | CC(=O)c1nn(CC(=O)N2C[C@H](F)C[C@H]2C(=O)Nc2cccc(Br)n2)c2ccc(-c3cnc4cc(C(=O)O)nn4c3)cc12 [Compound 289, 6-(3-acetyl-1-(2-((2S,4R)-2-(6-bromopyridin-2-ylcarbamoyl)-4-fluoropyrrolidin-1-yl)-2-oxoethyl)-1H-indazol-5-yl)pyrazolo[1,5-a]pyrimidine-2-carboxylic acid] | < 1000

same assay, conditions: Human Factor D, Table 3; read-out: IC50

Row | Compound | IC50 [nM]
12 | CC(=O)c1nn(CC(=O)N2C[C@@H](C)C[C@H]2C(=O)Nc2nc(Br)ccc2C)c2ccc(-c3cnc(C)nc3)cc12 [Compound 643, (2S,4S)-1-(2-(3-Acetyl-5-(2-methylpyrimidin-5-yl)-1H-indazol-1-yl)acetyl)-N-(6-bromo-3-methylpyridin-2-yl)-4-methylpyrrolidine-2-carboxamide] | < 1000
13 | CC(=O)c1nn(CC(=O)N2CC[C@H]2C(=O)Nc2cccc(C)n2)c2ccc(-c3ccc4c(c3)CCC4)cc12 [Compound 573, (S)-1-(2-(3-Acetyl-5-(2,3-dihydro-1H-inden-5-yl)-1H-indazol-1-yl)acetyl)-N-(6-methylpyridin-2-yl)azetidine-2-carboxamide] | > 10000
14 | CC(=O)c1nn(CC(=O)N2C[C@H](F)C[C@H]2C(=O)Nc2cccc(Br)n2)c2ccc(-c3cn[nH]c3)cc12 [Compound 707, (2S,4R)-1-(2-(3-acetyl-5-(1H-pyrazol-4-yl)-1H-indazol-1-yl)acetyl)-N-(6-bromopyridin-2-yl)-4-fluoropyrrolidine-2-carboxamide] | < 1000
15 | CC(=O)c1nn(CC(=O)N2CCCC[C@@H]2C(=O)Nc2cccc(Br)n2)c2ccc(-c3cnc(C)nc3)cc12 [Compound 592, (R)-1-(2-(3-acetyl-5-(2-methylpyrimidin-5-yl)-1H-indazol-1-yl)acetyl)-N-(6-bromopyridin-2-yl)piperidine-2-carboxamide] | > 10000
16 | CC(=O)c1nn(CC(=O)N2C[C@H](F)C[C@H]2C(=O)Nc2cnc(C)c(Br)n2)c2ccc(-c3cnc4ccnn4c3)cc12 [Compound 665, (2S,4R)-1-(2-(3-Acetyl-5-(pyrazolo[1,5-a]pyrimidin-6-yl)-1H-indazol-1-yl)acetyl)-N-(6-bromo-5-methylpyrazin-2-yl)-4-fluoropyrrolidine-2-carboxamide] | < 1000
17 | CC(=O)c1nn(CC(=O)N2C[C@H](F)C[C@H]2C(=O)Nc2cc(Cl)cc(Br)n2)c2ccc(-c3cnc4cc(C)nn4c3)cc12 [Compound 676, (2S,4R)-1-(2-(3-acetyl-5-(2-methylpyrazolo[1,5-a]pyrimidin-6-yl)-1H-indazol-1-yl)acetyl)-N-(6-bromo-4-chloropyridin-2-yl)-4-fluoropyrrolidine-2-carboxamide] | < 1000

same assay, conditions: Table 3; Human Factor D 80 nM, substrate Z-L-Lys-SBzl; read-out: IC50 (Stars)

Row | Compound | IC50 [nM]
18 | CC(=O)c1nn(CC(=O)N2C[C@H](F)C[C@H]2C(=O)Nc2nc(Br)c(F)cc2C)c2ccc(-c3cnc(C)nc3)cc12 [Compound 520, (2S,4R)-1-(2-(3-Acetyl-5-(2-methylpyrimidin-5-yl)-1H-indazol-1-yl)acetyl)-N-(6-bromo-5-fluoro-3-methylpyridin-2-yl)-4-fluoropyrrolidine-2-carboxamide] | < 1000
19 | CSc1ncc(-c2ccc3c(c2)c(C(C)=O)nn3CC(=O)N2C[C@H](F)C[C@H]2C(=O)Nc2cccc(Br)n2)cn1 [Compound 531, (2S,4R)-1-(2-(3-Acetyl-5-(2-(methylthio)pyrimidin-5-yl)-1H-indazol-1-yl)acetyl)-N-(6-bromopyridin-2-yl)-4-fluoropyrrolidine-2-carboxamide] | < 1000
20 | CC(=O)c1nn(CC(=O)N2C[C@H](F)C[C@H]2C(=O)Nc2cc(Br)n(C)n2)c2ccc(-c3cnc(C)nc3)cc12 [Compound 381, (2S,4R)-1-(2-(3-Acetyl-5-(2-methylpyrimidin-5-yl)-1H-indazol-1-yl)acetyl)-N-(5-bromo-1-methyl-1H-pyrazol-3-yl)-4-fluoropyrrolidine-2-carboxamide] | < 1000
21 | CC(=O)c1nn(CC(=O)N2C[C@H](F)C[C@H]2C(=O)Nc2cccc(Br)n2)c2ccc(-c3ccc4ncncc4c3)cc12 [Compound 504, (2S,4R)-1-(2-(3-Acetyl-5-(quinazolin-6-yl)-1H-indazol-1-yl)acetyl)-N-(6-bromopyridin-2-yl)-4-fluoropyrrolidine-2-carboxamide] | < 1000
22 | CCOC(=O)Cc1ncc(-c2ccc3c(c2)c(C(C)=O)nn3CC(=O)N2C[C@H](F)C[C@H]2C(=O)Nc2ccc(F)c(Br)n2)cn1 [Compound 539, ethyl 2-(5-(3-Acetyl-1-(2-((2S,4R)-2-((6-bromo-5-fluoropyridin-2-yl)carbamoyl)-4-fluoropyrrolidin-1-yl)-2-oxoethyl)-1H-indazol-5-yl)pyrimidin-2-yl)acetate] | < 1000
23 | CC(=O)c1nn(CC(=O)N2[C@@H]3C[C@@H]3C[C@H]2C(=O)NCC(F)=C(C)C)c2ccc(-c3cnc(C)nc3)cc12 [Compound 482, (1R,3S,5R)-2-(2-(3-acetyl-5-(2-methylpyrimidin-5-yl)-1H-indazol-1-yl)acetyl)-N-(2-fluoro-3-methylbut-2-en-1-yl)-2-azabicyclo[3.1.0] hexane-3-carboxamide] | < 1000
24 | COc1ncc(-c2ccc3c(c2)c(C(C)=O)nn3CC(=O)N2C[C@H](F)C[C@H]2C(=O)Nc2nc(Br)ccc2C)cn1 [Compound 436, (2S,4R)-1-(2-(3-Acetyl-5-(2-methoxypyrimidin-5-yl)-1H-indazol-1-yl)acetyl)-N-(6-bromo-3-methylpyridin-2-yl)-4-fluoropyrrolidine-2-carboxamide] | < 1000
25 | CC(=O)c1nn(CC(=O)N2C[C@H](F)C[C@H]2C(=O)NCc2cccc(Br)n2)c2ccc(-c3cnc(C)nc3)cc12 [Compound 483, (2S,4R)-1-(2-(3-Acetyl-5-(2-methylpyrimidin-5-yl)-1H-indazol-1-yl)acetyl)-N-((6-bromopyridin-2-yl)methyl)-4-fluoropyrrolidine-2-carboxamide] | < 1000
